Experimental data reported in the supplement of paper PMC5844555.

Experiments:
Test in all cases: 3' UTR reporter interaction score (median-centred robust z-score of log2 firefly/Renilla activity); higher = less repression of the 3' UTR reporter
Settings in all cases: HEK293T; 48 h
FBXW7 = test system: FBXW7
Summary of the method: (§1)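 For the interaction score, the firefly/Renilla ratio was log-transformed, expressed as a robust z-score per plate using median and median absolute deviation, and median-centred per miRNA; a more negative score indicates interaction. These scores come from at least two independent screens, averaged. Each screen used HEK293T cells at 10,000/well in 96-well plates, co-transfected with DharmaFECT Duo carrying 100 ng luc2P 3' UTR reporter, 20 ng pRL-TK and 2.5 pmol miRNA mimic, with luciferase read at 48 h.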

ZEB2 = test system: ZEB2
Summary of the method: as §1

MYB = test system: MYB
Summary of the method: as §1

NOTCH1 = test system: NOTCH1
Summary of the method: as §1

PHOX2B = test system: PHOX2B
Summary of the method: as §1

TP53 = test system: TP53
Summary of the method: as §1

HRAS = test system: HRAS
Summary of the method: as §1

PHF6 = test system: PHF6
Summary of the method: as §1

RB1 = test system: RB1
Summary of the method: as §1

MYCN = test system: MYCN
Summary of the method: as §1

BRCA2 = test system: BRCA2
Summary of the method: as §1

EZH2 = test system: EZH2
Summary of the method: as §1

MYT1L = test system: MYT1L
Summary of the method: as §1

MYC = test system: MYC
Summary of the method: as §1

Row | Sequence | 3' UTR reporter interaction score (FBXW7) | 3' UTR reporter interaction score (ZEB2) | 3' UTR reporter interaction score (MYB) | 3' UTR reporter interaction score (NOTCH1) | 3' UTR reporter interaction score (PHOX2B) | 3' UTR reporter interaction score (TP53) | 3' UTR reporter interaction score (HRAS) | 3' UTR reporter interaction score (PHF6) | 3' UTR reporter interaction score (RB1) | 3' UTR reporter interaction score (MYCN) | 3' UTR reporter interaction score (BRCA2) | 3' UTR reporter interaction score (EZH2) | 3' UTR reporter interaction score (MYT1L) | 3' UTR reporter interaction score (MYC)
1 | UGAGAACUGAAUUCCAUGGGUU | -0.989 | 1.41 | 1.11 | -0.245 | -1.1 | -0.136 | -0.164 | 1.46 | -0.62 | 0.702 | -1.66 | 0.673 | 0.806 | -0.0139
2 | AUCCUUGCUAUCUGGGUGCUA | 0.895 | -0.105 | 0.799 | 0.113 | -0.723 | 0.763 | -3.26 | -1.61 | -2.46 | 1.2 | -0.448 | -0.755 | 0.363 | 0.118
3 | AAAGCGCUUCUCUUUAGAGGA | 0.112 | 0.196 | -0.0819 | 0.581 | 0.331 | -0.0242 | 0.681 | -0.164 | -0.785 | -0.629 | -0.521 | -0.591 | -0.414 | -0.0856
4 | AGAGGUAUAGGGCAUGGGAAAA | -0.74 | 1.12 | 0.665 | 0.463 | -0.404 | -0.403 | -0.616 | 0.541 | -0.615 | -2.96 | 0.942 | -0.166 | 0.692 | 0.244
5 | AAGUGCUGUCAUAGCUGAGGUC | 0.564 | 1.38 | -0.62 | -0.478 | -0.113 | 0.0875 | 0 | 0.918 | 1.65 | 1.22 | 0.528 | -0.608 | -0.819 | 0.212
6 | GUCCAGUUUUCCCAGGAAUCCCUU | -0.33 | -0.186 | 0.98 | 0.816 | -0.361 | -0.611 | -1.3 | 0.802 | -0.0539 | -0.357 | 0.301 | 0.32 | 0.164 | -0.0253
7 | UUAAGGCACGCGGUGAAUGCCA | 0.904 | -0.335 | -2.16 | 0.623 | 0.282 | 0.35 | 0.364 | -1.29 | -1.9 | 0.541 | -0.0269 | -1.56 | 2.33 | -0.0293
8 | GCAAAGCACACGGCCUGCAGAGA | 0.141 | 0.307 | 1.11 | 0.357 | -0.597 | -0.0423 | -0.313 | 1.65 | -1.65 | -0.217 | 0.0737 | 0.138 | -0.692 | 0.499
9 | CUGUGCGUGUGACAGCGGCUGA | 0.121 | 2.18 | 1.02 | 0.0936 | -2.14 | 0.618 | -0.943 | 0.722 | 1.29 | 0.24 | -0.102 | -0.315 | -2.16 | -0.0999
10 | AAAGUGCUUCCUUUUUGAGGG | 0.747 | 0.44 | -0.87 | 0.985 | 1.32 | 0.0321 | -0.00896 | -0.0231 | 1.02 | -0.0937 | 0.142 | -0.296 | -0.441 | 0.0093
